Data as given in ChEMBL document CHEMBL1275440, “In vitro activity of telavancin against resistant gram-positive bacteria” (2008).
Active and inactive are the calls of the source.

Columns and labels:
Format in all cases: functional
Streptococcus pneumoniae [1] = assay: Antibacterial activity against penicillin intermediate Streptococcus pneumoniae clinical isolate assessed as susceptibility level by broth microdilution method
Streptococcus viridans [2] = assay: Antibacterial activity against Streptococcus viridans clinical isolate by broth microdilution method
[3] = test system: Streptococcus constellatus; assay: Antibacterial activity against Streptococcus constellatus clinical isolate by broth microdilution method
[4] = test system: Streptococcus intermedius; assay: Antibacterial activity against Streptococcus intermedius clinical isolate assessed as susceptibility level by broth microdilution method
[5] = test system: Streptococcus intermedius; assay: Antibacterial activity against Streptococcus intermedius clinical isolate by broth microdilution method
Streptococcus agalactiae [6] = assay: Antibacterial activity against Streptococcus agalactiae group B clinical isolate by broth microdilution method
Streptococcus oralis [7] = assay: Antibacterial activity against Streptococcus oralis clinical isolate assessed as susceptibility level by broth microdilution method
Streptococcus pneumoniae [8] = assay: Antibacterial activity against penicillin intermediate Streptococcus pneumoniae clinical isolate by broth microdilution method
Streptococcus viridans [9] = assay: Antibacterial activity against Streptococcus viridans clinical isolate assessed as susceptibility level by broth microdilution method
Streptococcus pneumoniae [10] = assay: Antibacterial activity against penicillin resistant Streptococcus pneumoniae clinical isolate by broth microdilution method
Streptococcus mitis [11] = assay: Antibacterial activity against Streptococcus mitis clinical isolate by broth microdilution method
Streptococcus agalactiae [12] = assay: Antibacterial activity against Streptococcus agalactiae group B clinical isolate assessed as susceptibility level by broth microdilution method
Streptococcus pneumoniae [13] = assay: Antibacterial activity against penicillin resistant Streptococcus pneumoniae clinical isolate assessed as susceptibility level by broth microdilution method
Streptococcus pyogenes [14] = assay: Antibacterial activity against Streptococcus pyogenes group A clinical isolate by broth microdilution method
Streptococcus pyogenes [15] = assay: Antibacterial activity against Streptococcus pyogenes group A clinical isolate assessed as susceptibility level by broth microdilution method
Streptococcus pneumoniae [16] = assay: Antibacterial activity against multidrug-resistant Streptococcus pneumoniae clinical isolate by broth microdilution method
Streptococcus pneumoniae [17] = assay: Antibacterial activity against multidrug-resistant Streptococcus pneumoniae clinical isolate assessed as susceptibility level by broth microdilution method
Streptococcus oralis [18] = assay: Antibacterial activity against Streptococcus oralis clinical isolate by broth microdilution method
Streptococcus mitis [19] = assay: Antibacterial activity against Streptococcus mitis clinical isolate assessed as susceptibility level by broth microdilution method
[20] = test system: Streptococcus constellatus; assay: Antibacterial activity against Streptococcus constellatus clinical isolate assessed as susceptibility level by broth microdilution method
Staphylococcus aureus [21] = assay: Antibacterial activity against methicillin resistant Staphylococcus aureus clinical isolate assessed as susceptibility level by broth microdilution method
[22] = test system: Staphylococcus epidermidis; assay: Antibacterial activity against methicillin resistant Staphylococcus epidermidis clinical isolate assessed as susceptibility level by broth microdilution method
[23] = test system: Staphylococcus saprophyticus; assay: Antibacterial activity against methicillin resistant coagulase-negative Staphylococcus saprophyticus clinical isolate by broth microdilution method
[24] = test system: Staphylococcus saprophyticus; assay: Antibacterial activity against methicillin resistant coagulase-negative Staphylococcus saprophyticus clinical isolate assessed as susceptibility level by broth microdilution method
[25] = test system: Staphylococcus auricularis; assay: Antibacterial activity against methicillin resistant coagulase-negative Staphylococcus auricularis clinical isolate assessed as susceptibility level by broth microdilution method
[26] = test system: Staphylococcus epidermidis; assay: Antibacterial activity against methicillin resistant Staphylococcus epidermidis clinical isolate by broth microdilution method
[27] = test system: Staphylococcus haemolyticus; assay: Antibacterial activity against methicillin resistant coagulase-negative Staphylococcus haemolyticus clinical isolate by broth microdilution method
Staphylococcus capitis [28] = assay: Antibacterial activity against methicillin resistant coagulase-negative Staphylococcus capitis clinical isolate assessed as susceptibility level by broth microdilution method
Staphylococcus aureus [29] = assay: Antibacterial activity against methicillin resistant Staphylococcus aureus clinical isolate by broth microdilution method
[30] = Antibacterial activity against methicillin resistant coagulase-negative Staphylococcus hominis subsp. novobiosepticus clinical isolate assessed as susceptibility level by broth microdilution method
[31] = test system: Staphylococcus auricularis; assay: Antibacterial activity against methicillin resistant coagulase-negative Staphylococcus auricularis clinical isolate by broth microdilution method
Staphylococcus capitis [32] = assay: Antibacterial activity against methicillin resistant coagulase-negative Staphylococcus capitis clinical isolate by broth microdilution method
[33] = Antibacterial activity against methicillin resistant coagulase-negative Staphylococcus hominis subsp. novobiosepticus clinical isolate by broth microdilution method
[34] = test system: Staphylococcus haemolyticus; assay: Antibacterial activity against methicillin resistant coagulase-negative Staphylococcus haemolyticus clinical isolate assessed as susceptibility level by broth microdilution method

C[C@H]1COc2c(N3CCN(C)CC3)c(F)cc3c(=O)c(C(=O)O)cn1c23.C[C@H]1COc2c(N3CCN(C)CC3)c(F)cc3c(=O)c(C(=O)O)cn1c23.O [LEVOFLOXACIN]
95%: Activity (Streptococcus pneumoniae [17])
99%: Activity (Streptococcus agalactiae [12])
0.5 µg/mL: MIC50 (Streptococcus agalactiae [6]) | MIC50 (Streptococcus pneumoniae [8]) | MIC50 (Streptococcus pneumoniae [10]) | MIC50 (Streptococcus pyogenes [14]) | MIC50 (Streptococcus pneumoniae [16])
98%: Activity (Streptococcus pyogenes [15])
inactive: MIC50 (Streptococcus viridans [2]) | MIC90 (Streptococcus viridans [2]) | MIC50 [3] | MIC90 [3] | MIC50 [5] | MIC90 [5] | MIC50 (Streptococcus mitis [11]) | MIC90 (Streptococcus mitis [11]) | MIC50 (Streptococcus oralis [18]) | MIC90 (Streptococcus oralis [18])
100%: Activity [4] | Activity (Streptococcus oralis [7]) | Activity (Streptococcus viridans [9]) | Activity (Streptococcus mitis [19]) | Activity [20]
92%: Activity (Streptococcus pneumoniae [1])
1 µg/mL: MIC90 (Streptococcus agalactiae [6]) | MIC90 (Streptococcus pneumoniae [8]) | MIC90 (Streptococcus pneumoniae [10]) | MIC90 (Streptococcus pyogenes [14]) | MIC90 (Streptococcus pneumoniae [16])
97%: Activity (Streptococcus pneumoniae [13])
≤ 0.12 µg/mL: MIC (Streptococcus viridans [2]) | MIC [3] | MIC [5] | MIC (Streptococcus mitis [11]) | MIC (Streptococcus oralis [18])

CC[C@H]1OC(=O)[C@H](C)C(=O)[C@H](C)[C@@H](O[C@@H]2O[C@H](C)C[C@H](N(C)C)[C@H]2O)[C@](C)(OC)C[C@@H](C)C(=O)[C@H](C)[C@H]2N(CCCCn3cnc(-c4cccnc4)c3)C(=O)O[C@]12C [TELITHROMYCIN]
43%: Activity [22]
29%: Activity [24] | Activity [25] | Activity (Staphylococcus capitis [28]) | Activity [30] | Activity [34]
0.06 µg/mL: MIC50 (Streptococcus pneumoniae [10]) | MIC50 (Streptococcus pneumoniae [16])
0.25 µg/mL: MIC90 (Streptococcus agalactiae [6]) | MIC50 (Staphylococcus aureus [29]; Staphylococcus aureus)
0.5 µg/mL: MIC50 [26] | MIC90 (Streptococcus pneumoniae [10]) | MIC90 (Streptococcus pneumoniae [16])
83%: Activity (Staphylococcus aureus [21]) | Activity (Staphylococcus aureus [29])
0.015 µg/mL: MIC50 (Streptococcus agalactiae [6]) | MIC50 (Streptococcus pyogenes [14]) | MIC90 (Streptococcus pyogenes [14])
> 8 µg/mL: MIC50 [23] | MIC90 [23] | MIC90 [26] | MIC50 [27] | MIC90 [27] | MIC50 [31] | MIC90 [31] | MIC50 (Staphylococcus capitis [32]) | MIC90 (Staphylococcus capitis [32]) | MIC50 [33] | MIC90 [33]
0.004 µg/mL: MIC (Streptococcus viridans [2]) | MIC [3] | MIC [5] | MIC (Streptococcus mitis [11]) | MIC (Streptococcus oralis [18])
0.03 µg/mL: MIC50 (Streptococcus pneumoniae [8])
16 µg/mL: MIC90 (Staphylococcus aureus [29]; Staphylococcus aureus)
0.12 µg/mL: MIC90 (Streptococcus pneumoniae [8])
100%: Activity (Streptococcus pneumoniae [1])
inactive: MIC50 (Streptococcus viridans [2]) | MIC90 (Streptococcus viridans [2]) | MIC50 [3] | MIC90 [3] | MIC50 [5] | MIC90 [5] | MIC50 (Streptococcus mitis [11]) | MIC90 (Streptococcus mitis [11]) | MIC50 (Streptococcus oralis [18]) | MIC90 (Streptococcus oralis [18])

CN(C)[C@@H]1C(O)=C(C(N)=O)C(=O)[C@@]2(O)C(O)=C3C(=O)c4c(O)cccc4[C@@](C)(O)[C@H]3C[C@@H]12 [TETRACYCLINE]
89%: Activity (Streptococcus pyogenes [15])
inactive: MIC50 (Streptococcus viridans [2]) | MIC90 (Streptococcus viridans [2]) | MIC50 [3] | MIC90 [3] | MIC50 [5] | MIC90 [5] | MIC50 (Streptococcus mitis [11]) | MIC90 (Streptococcus mitis [11]) | MIC50 (Streptococcus oralis [18]) | MIC90 (Streptococcus oralis [18])
16%: Activity (Streptococcus agalactiae [12])
> 8 µg/mL: MIC50 (Streptococcus agalactiae [6]) | MIC90 (Streptococcus agalactiae [6]) | MIC90 (Streptococcus pneumoniae [8]) | MIC50 (Streptococcus pneumoniae [10]) | MIC50 (Streptococcus pneumoniae [16])
37%: Activity (Streptococcus pneumoniae [17])
67%: Activity (Streptococcus pneumoniae [1])
75%: Activity [4] | Activity (Streptococcus oralis [7]) | Activity (Streptococcus viridans [9]) | Activity (Streptococcus mitis [19]) | Activity [20]
0.12 µg/mL: MIC (Streptococcus viridans [2]) | MIC [3] | MIC [5] | MIC50 (Streptococcus pneumoniae [8]) | MIC (Streptococcus mitis [11]) | MIC50 (Streptococcus pyogenes [14]) | MIC (Streptococcus oralis [18])
41%: Activity (Streptococcus pneumoniae [13])
4 µg/mL: MIC90 (Streptococcus pyogenes [14])
